{"source": "ChEMBL document CHEMBL4052645", "about": "“Discovery of potent and efficacious pyrrolopyridazines as dual JAK1/3 inhibitors” (Bioorg Med Chem Lett, 2017)", "key": {"[1]": {"test": "Oral bioavailability in BALB/c mouse at 10 mg/kg", "assay_type": "ADME, organism-based", "settings": "in vivo"}, "[2]": {"target": "Casein kinase I isoform alpha (Homo sapiens) (UniProt P48729)", "test": "Inhibition of wild-type human partial length CK1A (M1 to L450 residues) expressed in mammalian expression system assessed as residual activity at 50 nM by Kinomescan method relative to control"}, "[3]": {"target": "Dual specificity tyrosine-phosphorylation-regulated kinase 1B (Homo sapiens) (UniProt Q9Y463)", "test": "Inhibition of wild-type human full length DYRK1B (M1 to S629 residues) expressed in bacterial expression system assessed as residual activity at 50 nM by Kinomescan method relative to control"}, "[4]": {"target": "Myosin light chain kinase family member 4 (Homo sapiens) (UniProt Q86YV6)", "sequence (Q86YV6 whole entry, the tested form may be a part)": "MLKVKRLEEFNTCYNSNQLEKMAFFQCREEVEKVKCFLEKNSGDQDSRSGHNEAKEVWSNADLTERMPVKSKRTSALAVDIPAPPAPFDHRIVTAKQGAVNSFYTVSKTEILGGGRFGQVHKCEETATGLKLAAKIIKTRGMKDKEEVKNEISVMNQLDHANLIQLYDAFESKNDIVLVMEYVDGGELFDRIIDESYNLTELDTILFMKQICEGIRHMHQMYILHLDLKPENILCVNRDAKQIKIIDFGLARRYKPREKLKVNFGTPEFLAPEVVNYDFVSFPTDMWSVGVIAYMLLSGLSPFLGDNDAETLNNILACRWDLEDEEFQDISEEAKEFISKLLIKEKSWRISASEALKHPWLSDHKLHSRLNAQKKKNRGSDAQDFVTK", "test": "Inhibition of wild-type human partial length SGK085 (V79 to S380 residues) expressed in bacterial expression system assessed as residual activity at 50 nM by Kinomescan method relative to control"}, "[5]": {"target": "Serine/threonine-protein kinase DCLK1 (Homo sapiens) (UniProt O15075)", "sequence (O15075 whole entry, the tested form may be a part)": "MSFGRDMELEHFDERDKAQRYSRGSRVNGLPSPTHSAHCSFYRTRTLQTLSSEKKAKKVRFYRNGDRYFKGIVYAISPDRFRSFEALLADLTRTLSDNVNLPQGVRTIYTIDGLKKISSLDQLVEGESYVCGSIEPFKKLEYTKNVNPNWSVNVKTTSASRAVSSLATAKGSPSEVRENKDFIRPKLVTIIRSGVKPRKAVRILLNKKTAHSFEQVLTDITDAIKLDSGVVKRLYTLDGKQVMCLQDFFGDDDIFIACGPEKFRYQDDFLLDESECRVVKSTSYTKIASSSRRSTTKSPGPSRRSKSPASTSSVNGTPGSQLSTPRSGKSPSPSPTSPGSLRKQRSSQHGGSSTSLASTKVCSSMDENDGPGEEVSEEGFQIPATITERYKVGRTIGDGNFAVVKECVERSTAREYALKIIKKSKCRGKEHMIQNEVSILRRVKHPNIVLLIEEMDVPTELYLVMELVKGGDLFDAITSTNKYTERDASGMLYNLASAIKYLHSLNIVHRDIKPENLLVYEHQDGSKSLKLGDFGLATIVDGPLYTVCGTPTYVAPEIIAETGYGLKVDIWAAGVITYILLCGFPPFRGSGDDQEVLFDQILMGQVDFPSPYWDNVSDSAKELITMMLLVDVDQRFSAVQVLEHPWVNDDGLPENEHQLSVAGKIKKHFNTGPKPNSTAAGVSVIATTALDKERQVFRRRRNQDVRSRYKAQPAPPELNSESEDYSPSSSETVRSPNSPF", "test": "Inhibition of wild-type human partial length DCAMKL1 (L270 to A662 residues) expressed in mammalian expression system assessed as residual activity at 50 nM by Kinomescan method relative to control"}, "[6]": {"test": "Half life in BALB/c mouse at 10 mg/kg, po", "assay_type": "ADME, organism-based", "settings": "in vivo"}, "[7]": {"test": "Protein binding in rat plasma", "assay_type": "ADME, cell-free", "settings": "read-out: PPB (converted)"}, "[8]": {"target": "Cyclin-dependent kinase-like 2 (Homo sapiens) (UniProt Q92772)", "test": "Inhibition of wild-type human partial length CDKL2 (M1 to D327 residues) expressed in bacterial expression system assessed as residual activity at 50 nM by Kinomescan method relative to control"}, "[9]": {"test": "Half life in Sprague-Dawley rat at 10 mg/kg, po", "assay_type": "ADME, organism-based", "settings": "in vivo"}, "[10]": {"target": "Tyrosine-protein kinase Fgr (Homo sapiens) (UniProt P09769)", "test": "Inhibition of wild-type human partial length FGR (L233 to T529 residues) expressed in bacterial expression system assessed as residual activity at 50 nM by Kinomescan method relative to control"}, "[11]": {"tested_on": "Rattus norvegicus", "test": "Cardiotoxicity in rat assessed as decrease in blood pressure at 30 mg/kg, po", "assay_type": "toxicity, organism-based", "set-up": "scale not given: the % may be the effect or the level left", "settings": "in vivo"}, "[12]": {"target": "Wee1-like protein kinase (Homo sapiens) (UniProt P30291)", "sequence (P30291 whole entry, looked up, the tested form may be a part)": "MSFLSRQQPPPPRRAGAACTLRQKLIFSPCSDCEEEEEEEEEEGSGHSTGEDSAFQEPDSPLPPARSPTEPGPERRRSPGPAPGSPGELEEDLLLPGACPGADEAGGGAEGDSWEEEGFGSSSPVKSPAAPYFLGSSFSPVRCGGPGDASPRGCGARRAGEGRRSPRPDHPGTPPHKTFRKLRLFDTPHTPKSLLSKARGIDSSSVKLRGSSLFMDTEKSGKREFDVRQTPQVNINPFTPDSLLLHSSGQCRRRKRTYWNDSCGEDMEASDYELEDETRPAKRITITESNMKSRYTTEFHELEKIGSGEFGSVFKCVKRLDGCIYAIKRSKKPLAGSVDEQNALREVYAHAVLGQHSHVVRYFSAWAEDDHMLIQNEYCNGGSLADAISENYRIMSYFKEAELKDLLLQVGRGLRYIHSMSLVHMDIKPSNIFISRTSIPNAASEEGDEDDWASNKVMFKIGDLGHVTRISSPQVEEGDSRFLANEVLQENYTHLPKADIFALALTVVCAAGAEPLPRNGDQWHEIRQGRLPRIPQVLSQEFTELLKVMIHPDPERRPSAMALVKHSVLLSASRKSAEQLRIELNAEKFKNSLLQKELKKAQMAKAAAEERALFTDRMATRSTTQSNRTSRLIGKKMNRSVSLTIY", "test": "Inhibition of wild-type human partial length WEE1 (M291 to K575 residues) expressed in bacterial expression system assessed as residual activity at 50 nM by Kinomescan method relative to control"}, "[13]": {"target": "Serine/threonine-protein kinase PLK4 (Homo sapiens) (UniProt O00444)", "test": "Inhibition of wild-type human partial length PLK4 (M1 to S273 residues) expressed in mammalian expression system assessed as residual activity at 50 nM by Kinomescan method relative to control"}, "[14]": {"target": "Mitogen-activated protein kinase kinase kinase 1 (Homo sapiens) (UniProt Q13233)", "test": "Inhibition of wild-type human partial length MAP3K1 (L1202 to W1512 residues) expressed in mammalian expression system assessed as residual activity at 50 nM by Kinomescan method relative to control"}, "[15]": {"target": "Serine/threonine-protein kinase NIM1 (Homo sapiens) (UniProt Q8IY84)", "test": "Inhibition of wild-type human partial length NIM1 (Q44 to N355 residues) expressed in mammalian expression system assessed as residual activity at 50 nM by Kinomescan method relative to control"}, "[16]": {"test": "Protein binding in mouse plasma at 10 mg/kg, po", "assay_type": "ADME, organism-based", "settings": "read-out: PPB (converted)"}, "[17]": {"test": "AUC in Sprague-Dawley rat at 10 mg/kg, po", "assay_type": "ADME, organism-based", "settings": "in vivo"}, "[18]": {"test": "Metabolic stability in mouse liver microsomes assessed as compound remaining after 10 mins", "assay_type": "ADME, microsome", "settings": "read-out: Stability"}, "[19]": {"test": "Oral bioavailability in Sprague-Dawley rat at 10 mg/kg", "assay_type": "ADME, organism-based", "settings": "in vivo"}, "[20]": {"target": "Rho-associated protein kinase 2 (Homo sapiens, UniProt O75116)", "test": "Inhibition of Rho-associated protein kinase 2 (unknown origin)"}, "[21]": {"test": "Volume of distribution at steady state in BALB/c mouse at 2 mg/kg, iv", "assay_type": "ADME, organism-based", "settings": "in vivo, read-out: Vdss"}, "[22]": {"test": "Tmax in Sprague-Dawley rat at 10 mg/kg, po", "assay_type": "ADME, organism-based", "settings": "in vivo"}, "[23]": {"target": "Voltage-gated inwardly rectifying potassium channel KCNH2 (Homo sapiens, UniProt Q12809)", "test": "Inhibition of human ERG by patch clamp method"}, "[24]": {"test": "Cmax in Sprague-Dawley rat at 10 mg/kg, po", "assay_type": "ADME, organism-based", "set-up": "dose 10 mg/kg, route oral", "settings": "in vivo"}, "[25]": {"target": "Serine/threonine-protein kinase STK11 (Homo sapiens) (UniProt Q15831)", "test": "Inhibition of wild-type human full length LKB1 (M1 to Q433 residues) expressed in bacterial expression system assessed as residual activity at 50 nM by Kinomescan method relative to control"}, "[26]": {"test": "Permeability from apical side to basolateral side in human Caco2 cells", "assay_type": "ADME, cell-based", "settings": "Caco-2, read-out: permeability"}, "[27]": {"target": "Calcium/calmodulin-dependent protein kinase type II subunit beta (Homo sapiens) (UniProt Q13554)", "sequence (Q13554 whole entry, the tested form may be a part)": "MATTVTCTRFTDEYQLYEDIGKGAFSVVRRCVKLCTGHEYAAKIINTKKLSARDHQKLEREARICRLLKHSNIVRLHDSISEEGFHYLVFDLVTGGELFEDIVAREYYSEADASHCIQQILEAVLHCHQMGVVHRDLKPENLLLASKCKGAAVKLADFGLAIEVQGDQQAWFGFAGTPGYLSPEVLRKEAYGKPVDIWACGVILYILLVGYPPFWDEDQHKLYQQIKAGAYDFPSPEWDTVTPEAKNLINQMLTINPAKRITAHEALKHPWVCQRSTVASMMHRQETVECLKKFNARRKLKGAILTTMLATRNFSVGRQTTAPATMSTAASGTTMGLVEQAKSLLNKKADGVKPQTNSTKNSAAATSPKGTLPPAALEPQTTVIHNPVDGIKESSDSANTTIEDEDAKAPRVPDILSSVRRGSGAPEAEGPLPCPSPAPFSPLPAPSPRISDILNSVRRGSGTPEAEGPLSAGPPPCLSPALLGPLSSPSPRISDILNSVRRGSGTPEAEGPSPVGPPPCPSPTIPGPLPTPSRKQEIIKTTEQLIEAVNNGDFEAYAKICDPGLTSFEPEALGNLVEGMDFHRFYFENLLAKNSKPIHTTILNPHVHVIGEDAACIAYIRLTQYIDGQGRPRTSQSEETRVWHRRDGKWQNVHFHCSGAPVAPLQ", "test": "Inhibition of wild-type human partial length CAMK2B (M1 to Q380 residues) expressed in bacterial expression system assessed as residual activity at 50 nM by Kinomescan method relative to control"}, "[28]": {"tested_on": "Ribosomal protein S6 kinase alpha-2", "test": "Inhibition of wild-type human partial length N-terminal RSK3 kinase domain 1 (M1 to Q385 residues) expressed in bacterial expression system assessed as residual activity at 50 nM by Kinomescan method relative to control"}, "[29]": {"target": "Cyclin-dependent kinase-like 3 (Homo sapiens) (UniProt Q8IVW4)", "sequence (Q8IVW4 whole entry, looked up, the tested form may be a part)": "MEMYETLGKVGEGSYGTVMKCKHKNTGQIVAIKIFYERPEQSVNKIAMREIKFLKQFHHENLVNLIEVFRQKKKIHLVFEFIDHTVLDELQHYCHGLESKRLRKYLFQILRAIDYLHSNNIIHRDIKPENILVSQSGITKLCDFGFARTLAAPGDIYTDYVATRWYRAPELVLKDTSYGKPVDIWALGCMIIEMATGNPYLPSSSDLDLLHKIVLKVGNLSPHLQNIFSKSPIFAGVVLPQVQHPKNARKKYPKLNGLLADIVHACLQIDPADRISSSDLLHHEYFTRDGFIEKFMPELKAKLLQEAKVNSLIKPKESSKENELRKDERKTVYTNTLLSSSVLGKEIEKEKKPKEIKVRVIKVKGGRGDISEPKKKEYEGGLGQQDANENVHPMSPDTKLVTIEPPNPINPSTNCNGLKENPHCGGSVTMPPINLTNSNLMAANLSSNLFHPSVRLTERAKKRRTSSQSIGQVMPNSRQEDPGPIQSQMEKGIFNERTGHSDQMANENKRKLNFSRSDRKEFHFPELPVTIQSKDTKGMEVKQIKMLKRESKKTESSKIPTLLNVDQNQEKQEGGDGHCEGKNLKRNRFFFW", "test": "Inhibition of wild-type human partial length CDKL3 (M1 to D327 residues) expressed in bacterial expression system assessed as residual activity at 50 nM by Kinomescan method relative to control"}, "[30]": {"target": "Serine/threonine-protein kinase tousled-like 2 (Homo sapiens) (UniProt Q86UE8)", "sequence (Q86UE8 whole entry, looked up, the tested form may be a part)": "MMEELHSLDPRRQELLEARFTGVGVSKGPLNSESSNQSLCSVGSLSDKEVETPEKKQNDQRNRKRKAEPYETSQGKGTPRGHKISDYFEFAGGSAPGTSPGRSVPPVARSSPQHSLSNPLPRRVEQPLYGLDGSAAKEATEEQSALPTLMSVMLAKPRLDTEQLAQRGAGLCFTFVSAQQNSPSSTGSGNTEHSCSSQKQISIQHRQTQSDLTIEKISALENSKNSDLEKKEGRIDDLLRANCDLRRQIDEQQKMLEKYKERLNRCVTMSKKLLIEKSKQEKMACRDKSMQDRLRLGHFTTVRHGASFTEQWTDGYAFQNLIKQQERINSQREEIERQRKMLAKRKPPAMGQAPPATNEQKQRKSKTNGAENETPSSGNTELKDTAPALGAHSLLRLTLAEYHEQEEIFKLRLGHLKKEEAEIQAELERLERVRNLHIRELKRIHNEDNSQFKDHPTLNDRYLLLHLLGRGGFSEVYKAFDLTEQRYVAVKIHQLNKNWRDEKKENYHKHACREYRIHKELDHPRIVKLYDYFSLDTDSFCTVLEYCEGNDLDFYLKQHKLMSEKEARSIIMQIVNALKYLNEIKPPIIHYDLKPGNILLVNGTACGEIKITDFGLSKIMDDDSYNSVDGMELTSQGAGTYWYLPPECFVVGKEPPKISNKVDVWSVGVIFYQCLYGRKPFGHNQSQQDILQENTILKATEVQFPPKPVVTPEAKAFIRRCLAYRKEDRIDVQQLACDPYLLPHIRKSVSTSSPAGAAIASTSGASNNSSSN", "test": "Inhibition of wild-type human partial length TLK2 (E424 to N749 residues) expressed in bacterial expression system assessed as residual activity at 50 nM by Kinomescan method relative to control"}, "[31]": {"tested_on": "Phosphatidylinositol 4,5-bisphosphate 3-kinase catalytic subunit alpha isoform (Homo sapiens), P42336 [C420R]", "sequence (P42336 whole entry C420R, the tested form may be a part, canonical isoform)": "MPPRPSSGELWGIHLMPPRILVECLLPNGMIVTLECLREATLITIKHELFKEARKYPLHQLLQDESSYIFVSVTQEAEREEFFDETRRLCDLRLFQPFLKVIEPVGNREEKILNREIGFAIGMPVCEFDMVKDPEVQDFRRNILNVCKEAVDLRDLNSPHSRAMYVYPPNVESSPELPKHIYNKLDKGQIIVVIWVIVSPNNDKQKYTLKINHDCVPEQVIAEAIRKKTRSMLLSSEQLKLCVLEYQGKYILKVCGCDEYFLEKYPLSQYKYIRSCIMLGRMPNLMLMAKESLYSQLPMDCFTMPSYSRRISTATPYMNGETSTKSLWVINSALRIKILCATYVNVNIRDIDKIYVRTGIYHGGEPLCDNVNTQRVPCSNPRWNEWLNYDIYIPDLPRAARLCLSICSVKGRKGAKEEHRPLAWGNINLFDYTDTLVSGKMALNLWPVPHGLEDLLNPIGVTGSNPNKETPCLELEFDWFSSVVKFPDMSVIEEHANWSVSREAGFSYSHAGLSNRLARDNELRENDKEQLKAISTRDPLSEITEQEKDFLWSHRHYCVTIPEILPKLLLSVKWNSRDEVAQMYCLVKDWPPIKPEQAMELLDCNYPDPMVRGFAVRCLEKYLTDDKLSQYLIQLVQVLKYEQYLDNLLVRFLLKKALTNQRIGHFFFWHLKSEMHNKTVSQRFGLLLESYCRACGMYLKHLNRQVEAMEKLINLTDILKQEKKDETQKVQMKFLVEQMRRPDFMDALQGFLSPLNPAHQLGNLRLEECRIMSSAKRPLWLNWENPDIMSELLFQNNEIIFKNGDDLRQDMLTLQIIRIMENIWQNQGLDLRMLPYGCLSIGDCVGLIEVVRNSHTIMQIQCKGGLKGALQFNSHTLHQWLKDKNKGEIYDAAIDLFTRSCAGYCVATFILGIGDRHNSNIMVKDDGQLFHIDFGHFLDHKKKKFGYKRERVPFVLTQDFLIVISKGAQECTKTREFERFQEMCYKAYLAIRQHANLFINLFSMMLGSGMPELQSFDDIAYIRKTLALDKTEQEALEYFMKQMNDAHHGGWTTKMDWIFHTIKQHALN", "test": "Inhibition of human partial length PI3KCA C420R mutant (R108 to N1068 residues) expressed in mammalian expression system assessed as residual activity at 50 nM by Kinomescan method relative to control"}, "[32]": {"test": "Clearance in BALB/c mouse at 2 mg/kg, iv", "assay_type": "ADME, organism-based", "settings": "in vivo"}, "[33]": {"target": "Serine/threonine-protein kinase PAK 6 (Homo sapiens) (UniProt Q9NQU5)", "test": "Inhibition of wild-type human partial length PAK6 (N298 to C681 residues) expressed in bacterial expression system assessed as residual activity at 50 nM by Kinomescan method relative to control"}, "[34]": {"tested_on": "Mus musculus", "test": "Toxicity in collagen-induced arthritis mouse model at 50 mg/kg, po qd", "assay_type": "organism-based", "settings": "in vivo"}, "[35]": {"tested_on": "Mus musculus", "test": "Antiarthritic activity in collagen-induced arthritis mouse model assessed as reduction in inflammation at 2 mg/kg, po qd measured up to 41 days", "assay_type": "functional, organism-based"}, "[36]": {"test": "Protein binding in human serum", "assay_type": "ADME, cell-free", "settings": "read-out: PB (converted)"}, "[37]": {"test": "Oral bioavailability in mouse", "assay_type": "ADME, organism-based", "settings": "in vivo"}}, "note": "Calls of active or inactive are those of the source. The rule behind the calls is not given here.", "data": [{"smiles": "COc1ccc(-c2cc3c(N[C@@H]4CC[C@](C)(N)C4(C)C)c(C(N)=O)cnn3c2)cn1", "values": [{"measurement": "bioavailability", "setting": "[1]", "result": 73, "unit": "%"}, {"measurement": "Activity", "setting": "[2]", "result": 84, "unit": "%"}, {"measurement": "Activity", "setting": "[3]", "result": 100, "unit": "%"}, {"measurement": "Activity", "setting": "[4]", "result": 94, "unit": "%"}, {"measurement": "Activity", "setting": "[5]", "result": 99, "unit": "%"}, {"measurement": "half-life", "setting": "[6]", "result": 10.2, "unit": "h"}, {"measurement": "fraction unbound", "setting": "[7]", "result": 0.12}, {"measurement": "Activity", "setting": "[8]", "result": 93, "unit": "%"}, {"measurement": "half-life", "setting": "[9]", "result": 12.2, "unit": "h"}, {"measurement": "Activity", "setting": "[10]", "result": 99, "unit": "%"}, {"measurement": "Activity", "setting": "[11]", "result": 14, "unit": "%"}, {"measurement": "Activity", "setting": "[12]", "result": 100, "unit": "%"}, {"measurement": "Activity", "setting": "[13]", "result": 100, "unit": "%"}, {"measurement": "Activity", "setting": "[14]", "result": 98, "unit": "%"}, {"measurement": "Activity", "setting": "[15]", "result": 90, "unit": "%"}, {"measurement": "fraction unbound", "setting": "[16]", "result": 0.07}, {"measurement": "AUC", "setting": "[17]", "result": 12.9, "unit": "µM·h"}, {"measurement": "remaining at 10 min", "setting": "[18]", "result": 95, "unit": "%"}, {"measurement": "bioavailability", "setting": "[19]", "result": 44, "unit": "%"}, {"measurement": "IC50", "setting": "[20]", "result": 43, "unit": "nM"}, {"measurement": "Vd", "setting": "[21]", "result": 8.2, "unit": "L/kg"}, {"measurement": "Tmax", "setting": "[22]", "result": 7.3, "unit": "h"}, {"measurement": "IC50", "setting": "[23]", "result": 3000, "unit": "nM"}, {"measurement": "Cmax", "setting": "[24]", "result": 600, "unit": "nM"}, {"measurement": "Activity", "setting": "[25]", "result": 100, "unit": "%"}, {"measurement": "Papp A→B", "setting": "[26]", "result": 2.6, "unit": "×10⁻⁶ cm/s"}, {"measurement": "Activity", "setting": "[27]", "result": 92, "unit": "%"}, {"measurement": "Activity", "setting": "[28]", "result": 87, "unit": "%"}, {"measurement": "Activity", "setting": "[29]", "result": 98, "unit": "%"}, {"measurement": "Activity", "setting": "[30]", "result": 98, "unit": "%"}, {"measurement": "Activity", "setting": "[31]", "result": 100, "unit": "%"}, {"measurement": "clearance", "setting": "[32]", "result": 16.7, "unit": "mL/min/kg"}, {"measurement": "Activity", "setting": "[33]", "result": 87, "unit": "%"}]}, {"smiles": "CC1(C)[C@H](Nc2c(C(N)=O)cnn3cc(-c4ccccc4)cc23)CC[C@]1(C)N", "values": [{"measurement": "Activity", "setting": "[5]", "result": 67, "unit": "%"}, {"measurement": "Activity", "setting": "[12]", "result": 97, "unit": "%"}, {"measurement": "Activity", "setting": "[34]", "result": "Toxic"}, {"measurement": "Activity", "setting": "[35]", "result": "inactive"}, {"measurement": "fraction unbound", "setting": "[36]", "result": 0.52}, {"measurement": "Activity", "setting": "[27]", "result": 78, "unit": "%"}, {"measurement": "Activity", "setting": "[29]", "result": 100, "unit": "%"}, {"measurement": "Activity", "setting": "[30]", "result": 96, "unit": "%"}, {"measurement": "Activity", "setting": "[31]", "result": 100, "unit": "%"}, {"measurement": "bioavailability", "setting": "[37]", "result": 67, "unit": "%"}]}]}
